Measured values taken from US7935853B2, “Micronized composition of a 2,4-disubstituted phenol derivative” (priority 2008, dated 2011).
≈ marks a conversion by molar mass, not a printed value.

Experiments:
[1] = tested on: LTB4 synthesis; assay: First phase I trial, plasma concentration vs LTB4 synthesis inhibition (EMAX); format: in vivo; conditions: Homo sapiens; healthy volunteers, single oral dose, EMAX type relationship; read-out: IC50 (level of drug in plasma eliciting half of maximal LTB4 synthesis inhibition)
From the text: (§1) 2,4,6-triiodophenol is a potent leukotriene B4 (LTB4) synthesis inhibitor that is currently under clinical development. The exact mechanism of action of 2,4,6-triiodophenol is not completely understood but it is known that the inhibition of the enzyme 5-lipoxygenase is involved.

[2] = First phase I clinical trial, single oral dose, safety and pharmacokinetics; format: in vivo, human; conditions: healthy volunteers
Protocol: as §1
A preliminary exploratory analysis was done by simulating the typical pharmacokinetic profiles after single and multiple 240, 350, and 500 mg dose regimens based on the pharmacokinetic model and model parameter estimates obtained from the first phase I study, where 2,4,6-triiodophenol was given to healthy volunteers in a single dose ranging from 6 to 1200 mg.

[3] = tested on: arthritis induced by injection of type II collagen in the mouse; assay: Model of arthritis induced by type II collagen in mice (CIA), hind paw plethysmometry; format: in vivo; conditions: for Total hind paw volume (sum of both hind paws) / Oedema (difference in paw volume from basal values on day 21) in both hind paws: group mean n=10
Protocol: The aim of the study was to determine the anti-inflammatory activity of the test item in a model of arthritis induced by injection of type II collagen in the mouse (CIA) and to compare the activity of two different formulations: micronized and non-micronized.
Induction of arthritis was carried out by an initial exposure to type II bovine collagen by a subcutaneous injection at the base of the tail (induction phase).
After a recovery time of 21 days, animals received a booster injection and approximately 4-5 weeks after the first injection there was an immune response with arthritis appearing in the extremities in the majority of the cases.
Four experimental groups were used in the study with 10 animals in each group:
Group D: Positive control: FCA+vehicle B.I.D.
Group E: Micronized Test Item (Micro) 10 mg/kg B.I.D.
Group F: Non-Micronized test item 10 mg/kg B.I.D.
Group G: Reference item: Indomethacin 1 mg/kg Q.D.
The dose administered to groups E and F was 10 mg/kg.
The dose administered to group G was 1 mg/kg.
The doses of the test and reference items were expressed as mg/Kg of compound administered to each animal.
The test and reference items were administered in a solution of methylcellulose (0.25%: vehicle).
The positive control group received the vehicle (methylcellulose 0.25%).
The test and reference items, as well as the vehicle were administered orally at a dosing volume of 5 mls/kg.
The route of administration used was oral by use of an intragastric cannula.
On the day of start of the study each mouse was injected subcutaneously at the base of the tail with a first dose of 0.1 ml of an emulsion of bovine type II collagen (1 mg/mL) in Freund's Complete Adjuvant. Afterwards, on day 21 after this first injection, a second booster injection of type II collagen was administered to all animals. In this occasion the collagen suspension was done using Incomplete Freund's Adjuvant.
Coinciding with the second booster injection on day 21 treatment with the test or reference items was started to the corresponding animals.
Treatment with the test or reference items was carried out for 31 consecutive days (days 21-51 of the experimental period). Additionally, a recovery period was included at the end of the treatment period from day 52 to day 65 in order to evaluate the duration of any anti-inflammatory effect observed once dosing has been terminated.
The animals' hind paw volume was measured by plethysmometry one day before the 1st injection of collagen, again one day before the second (booster) collagen injection (basal values) and then daily after administration of test/reference item until the end of the study. During the recovery period at the end of the study, hind paw volume was measured three times per week.
Additionally the data was also represented graphically, depicting changes in total hind paw volume, as well as oedema (differences from basal (day 21) values).

[4] = day 22, oral treatment days 21-51
[5] = day 23, oral treatment days 21-51
[6] = day 26, oral treatment days 21-51
[7] = day 27, oral treatment days 21-51
[8] = day 29, oral treatment days 21-51
[9] = day 30, oral treatment days 21-51
[10] = day 33, oral treatment days 21-51
[11] = day 34, oral treatment days 21-51
[12] = day 35, oral treatment days 21-51
[13] = day 36, oral treatment days 21-51
[14] = day 37, oral treatment days 21-51
[15] = day 40, oral treatment days 21-51
[16] = day 41, oral treatment days 21-51
[17] = day 42, oral treatment days 21-51
[18] = day 43, oral treatment days 21-51
[19] = day 44, oral treatment days 21-51
[20] = day 47, oral treatment days 21-51
[21] = day 48, oral treatment days 21-51
[22] = day 49, oral treatment days 21-51
[23] = day 50, oral treatment days 21-51
[24] = day 51, oral treatment days 21-51
[25] = day 54, recovery period after treatment days 21-51
[26] = day 56, recovery period after treatment days 21-51
[27] = day 58, recovery period after treatment days 21-51
[28] = day 61, recovery period after treatment days 21-51
[29] = day 63, recovery period after treatment days 21-51
[30] = day 65, recovery period after treatment days 21-51

Oc1c(I)cc(I)cc1I [2,4,6-triiodophenol]
IC50 [1]: 16.6 µg/mL (≈ 35.2 µM)
safety and tolerability ([2]; single oral dose from 6 mg to 1200 mg): very good safety and tolerability profiles
pharmacokinetic behavior ([2]; single oral dose, at least in the range from 240 to 700 mg): predictable and dose-independent

COc1ccc2c(c1)c(CC(=O)O)c(C)n2C(=O)c1ccc(Cl)cc1 [Indomethacin, reference compound]
Total hind paw volume (sum of both hind paws) ([3]; day 0, before collagen and treatment): 0.175
Total hind paw volume (sum of both hind paws) ([3]; day 20, basal, before treatment): 0.227
Oedema (difference in paw volume from basal values on day 21) in both hind paws [3, 4]: 0.000
Total hind paw volume (sum of both hind paws) [3, 4]: 0.227
Oedema (difference in paw volume from basal values on day 21) in both hind paws [3, 5]: 0.000
Total hind paw volume (sum of both hind paws) [3, 5]: 0.227
Oedema (difference in paw volume from basal values on day 21) in both hind paws [3, 6]: 0.022
Total hind paw volume (sum of both hind paws) [3, 6]: 0.249
Oedema (difference in paw volume from basal values on day 21) in both hind paws [3, 7]: 0.001
Total hind paw volume (sum of both hind paws) [3, 7]: 0.228
Oedema (difference in paw volume from basal values on day 21) in both hind paws [3, 8]: 0.011
Total hind paw volume (sum of both hind paws) [3, 8]: 0.237
Oedema (difference in paw volume from basal values on day 21) in both hind paws [3, 9]: 0.012
Total hind paw volume (sum of both hind paws) [3, 9]: 0.239
Oedema (difference in paw volume from basal values on day 21) in both hind paws [3, 10]: 0.012
Total hind paw volume (sum of both hind paws) [3, 10]: 0.238
Oedema (difference in paw volume from basal values on day 21) in both hind paws [3, 11]: 0.013
Total hind paw volume (sum of both hind paws) [3, 11]: 0.240
Oedema (difference in paw volume from basal values on day 21) in both hind paws [3, 12]: 0.020
Total hind paw volume (sum of both hind paws) [3, 12]: 0.246
Oedema (difference in paw volume from basal values on day 21) in both hind paws [3, 13]: 0.012
Total hind paw volume (sum of both hind paws) [3, 13]: 0.239
Oedema (difference in paw volume from basal values on day 21) in both hind paws [3, 14]: −0.005
Total hind paw volume (sum of both hind paws) [3, 14]: 0.222
Oedema (difference in paw volume from basal values on day 21) in both hind paws [3, 15]: 0.028
Total hind paw volume (sum of both hind paws) [3, 15]: 0.255
Oedema (difference in paw volume from basal values on day 21) in both hind paws [3, 16]: 0.031
Total hind paw volume (sum of both hind paws) [3, 16]: 0.257
Oedema (difference in paw volume from basal values on day 21) in both hind paws [3, 17]: 0.021
Total hind paw volume (sum of both hind paws) [3, 17]: 0.247
Oedema (difference in paw volume from basal values on day 21) in both hind paws [3, 18]: 0.023
Total hind paw volume (sum of both hind paws) [3, 18]: 0.250
Oedema (difference in paw volume from basal values on day 21) in both hind paws [3, 19]: 0.011
Total hind paw volume (sum of both hind paws) [3, 19]: 0.238
Oedema (difference in paw volume from basal values on day 21) in both hind paws [3, 20]: 0.028
Total hind paw volume (sum of both hind paws) [3, 20]: 0.254
Oedema (difference in paw volume from basal values on day 21) in both hind paws [3, 21]: 0.025
Total hind paw volume (sum of both hind paws) [3, 21]: 0.252
Oedema (difference in paw volume from basal values on day 21) in both hind paws [3, 22]: 0.030
Total hind paw volume (sum of both hind paws) [3, 22]: 0.256
Oedema (difference in paw volume from basal values on day 21) in both hind paws [3, 23]: 0.030
Total hind paw volume (sum of both hind paws) [3, 23]: 0.256
Oedema (difference in paw volume from basal values on day 21) in both hind paws [3, 24]: 0.021
Total hind paw volume (sum of both hind paws) [3, 24]: 0.248
Oedema (difference in paw volume from basal values on day 21) in both hind paws [3, 25]: 0.040
Total hind paw volume (sum of both hind paws) [3, 25]: 0.266
Oedema (difference in paw volume from basal values on day 21) in both hind paws [3, 26]: 0.052
Total hind paw volume (sum of both hind paws) [3, 26]: 0.279
Oedema (difference in paw volume from basal values on day 21) in both hind paws [3, 27]: 0.058
Total hind paw volume (sum of both hind paws) [3, 27]: 0.285
Oedema (difference in paw volume from basal values on day 21) in both hind paws [3, 28]: 0.058
Total hind paw volume (sum of both hind paws) [3, 28]: 0.28
Oedema (difference in paw volume from basal values on day 21) in both hind paws [3, 29]: 0.064
Total hind paw volume (sum of both hind paws) [3, 29]: 0.29
Oedema (difference in paw volume from basal values on day 21) in both hind paws [3, 30]: 0.076
Total hind paw volume (sum of both hind paws) [3, 30]: 0.30
effect on hind paw oedema (in words) ([3]; test item 10 mg/kg BID, Indomethacin 1 mg/kg Q.D, oral): significant anti-inflammatory response
